Experimental data as given in patent publication US9902725B2, “Heterocyclic derivatives as RORgamma modulators” (GENFIT, priority 2014, dated 2018).

Key:
CYP2C9 = CYP2C9 (Homo sapiens, UniProt P11712); assay: CYP inhibition CYP2C9 (CEREP); assay type: in vitro ADME; settings: human, recombinant CYP2C9, human recombinant CYP, single concentration (typically 10 μM); read-out: CYP 2C9 (% inhibition of Control)
Method: (§1) All the assays were conducted at CEREP (CEREP, France and USA). Metabolic compound stability was tested in human (CEREP, Ref 607) and mouse (CEREP, Ref: 806) microsomes. Inhibition of human drug-metabolizing cytochromes P450 was tested on the five most commonly responsible enzymes of metabolism of xenobiotics, CYP1A2 (CEREP, Ref 389), CYP2C9 (CEREP, Ref 412), CYP2C19 (CEREP, Ref 390), CYP2D6 (CEREP, Ref 1338) and CYP3A4 (CEREP, Ref 391).
(§2) Briefly, CEREP's CYP inhibition assay uses traditional probe substrates, which are specific to individual CYP isoforms. 3-cyano-7-ethoxycoumarin is mainly catalyzed by CYP1A2 and CYP2C19, 3-[2-(N,N-diethyl-N-methylammonium)ethyl]-7-methoxy-4-methylcoumarin for CYP2C9 and CYP2D6 and finally, 7-benzyloxy-4-trifluoromethylcoumarin is pathway catalyzed predominantly by CYP3A4. The inhibition assays were performed with human recombinant CYP isoforms preparations. HPLC MS/MS methods are used to detect metabolites in these assays. Compounds were tested at single concentrations (typically 10 μM) and data were expressed as percent of control inhibition.

[1] = Microsomal stability, mouse microsomes (CEREP); assay type: in vitro ADME; settings: 0.1 μM, 0.1 mg/mL microsomal protein
Method: as §1
(§3) Briefly, the standard conditions for CEREP's stability assays include incubation of test compound at 0.1 μM with human or mouse microsomes for 60 minutes in duplicate. The protein concentration of microsomes is 0.1 mg/mL. The parent compound is detected by HPLC-MS/MS analysis. The quantity of the parent compound that remains intact upon 60 minutes of microsome exposure (% remaining) is calculated by comparing the peak area of the parent compound at 60 minutes of exposure to the time zero.

[2] = Microsomal stability, human microsomes (CEREP); assay type: in vitro ADME; settings: 0.1 μM, 0.1 mg/mL microsomal protein
Method: as §1, §3

human RORγt = target: T1, human RORγt (Homo sapiens, UniProt P51449); assay: IL-17 secretion from EL4 murine lymphoma overexpressing human RORγt; assay type: cell-based; parameters: expressed in transfected cells; host or cells: EL-4 murine lymphoma; settings: IL-17 secretion inhibition, PMA and ionomycin stimulation, 24 h
T1 sequence (P51449 1-497 isoform P51449-2): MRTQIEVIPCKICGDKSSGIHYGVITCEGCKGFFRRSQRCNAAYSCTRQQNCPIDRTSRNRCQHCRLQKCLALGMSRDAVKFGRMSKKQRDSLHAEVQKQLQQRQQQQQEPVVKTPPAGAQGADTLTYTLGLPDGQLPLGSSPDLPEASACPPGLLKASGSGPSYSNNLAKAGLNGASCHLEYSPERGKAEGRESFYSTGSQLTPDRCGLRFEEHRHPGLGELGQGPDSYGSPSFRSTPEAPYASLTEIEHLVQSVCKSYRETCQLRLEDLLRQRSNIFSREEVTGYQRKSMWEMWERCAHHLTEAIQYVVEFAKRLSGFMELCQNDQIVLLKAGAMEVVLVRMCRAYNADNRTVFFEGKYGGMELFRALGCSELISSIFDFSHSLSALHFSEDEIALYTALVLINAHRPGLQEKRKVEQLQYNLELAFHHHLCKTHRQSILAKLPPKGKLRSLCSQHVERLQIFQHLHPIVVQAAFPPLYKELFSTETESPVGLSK
Summary of the method: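 EL4 murine lymphoma cells electroporated with hRORγt plasmid, seeded 150000 cells/well, pretreated with compound, then stimulated with PMA (10 ng/mL) and ionomycin (1 μM final) with compound for a further 24 h at 37° C. IL-17 in supernatant measured by HTRF or ELISA.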

CYP1A2 = target: T2, CYP1A2 (Homo sapiens, UniProt P05177); assay: CYP inhibition CYP1A2 (CEREP); assay type: in vitro ADME; settings: human, recombinant CYP1A2, probe 3-cyano-7-ethoxycoumarin, single concentration (typically 10 μM), read-out: CYP 1A2 (% inhibition of Control)
T2 sequence (P05177 1-516): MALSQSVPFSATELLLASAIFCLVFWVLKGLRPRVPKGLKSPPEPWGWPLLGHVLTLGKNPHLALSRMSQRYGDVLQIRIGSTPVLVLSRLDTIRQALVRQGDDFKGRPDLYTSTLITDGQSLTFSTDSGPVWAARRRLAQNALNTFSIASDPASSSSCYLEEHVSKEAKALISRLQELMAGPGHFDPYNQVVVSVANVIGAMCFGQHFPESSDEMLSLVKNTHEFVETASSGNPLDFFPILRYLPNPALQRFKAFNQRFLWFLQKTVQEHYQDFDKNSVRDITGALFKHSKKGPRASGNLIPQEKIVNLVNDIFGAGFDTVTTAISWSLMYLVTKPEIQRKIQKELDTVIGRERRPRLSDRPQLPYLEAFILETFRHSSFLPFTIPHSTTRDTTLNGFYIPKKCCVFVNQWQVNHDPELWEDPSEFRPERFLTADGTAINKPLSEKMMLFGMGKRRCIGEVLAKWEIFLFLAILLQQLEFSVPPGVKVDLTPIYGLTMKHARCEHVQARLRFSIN
Method: as §1, §2

CYP3A4 = CYP3A4 (Homo sapiens, UniProt P08684); assay: CYP inhibition CYP3A4 (CEREP); assay type: in vitro ADME; settings: human, recombinant CYP3A4, probe 7-benzyloxy-4-trifluoromethylcoumarin, single concentration (typically 10 μM), read-out: CYP 3A4 (% inhibition of Control)
Method: as §1, §2

CYP2C19 = CYP2C19 (Homo sapiens, UniProt P33261); assay: CYP inhibition CYP2C19 (CEREP); assay type: in vitro ADME; settings: human, recombinant CYP2C19, probe 3-cyano-7-ethoxycoumarin, single concentration (typically 10 μM), read-out: CYP 2C19 (% inhibition of Control)
Method: as §1, §2

Chain of CYP3A4 (P08684 whole entry): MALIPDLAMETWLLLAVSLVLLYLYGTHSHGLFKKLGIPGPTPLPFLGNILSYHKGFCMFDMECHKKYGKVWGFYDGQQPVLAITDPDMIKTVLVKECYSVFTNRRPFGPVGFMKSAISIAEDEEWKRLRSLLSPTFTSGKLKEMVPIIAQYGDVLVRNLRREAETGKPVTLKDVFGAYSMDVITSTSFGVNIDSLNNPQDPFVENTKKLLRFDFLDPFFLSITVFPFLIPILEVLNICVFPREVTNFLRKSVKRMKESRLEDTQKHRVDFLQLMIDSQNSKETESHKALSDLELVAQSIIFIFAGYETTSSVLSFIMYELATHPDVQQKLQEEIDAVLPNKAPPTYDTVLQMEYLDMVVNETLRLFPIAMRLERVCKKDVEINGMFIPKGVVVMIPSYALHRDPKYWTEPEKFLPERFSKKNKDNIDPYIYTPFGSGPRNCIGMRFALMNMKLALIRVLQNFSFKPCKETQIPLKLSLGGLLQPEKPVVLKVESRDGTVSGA
Chain of CYP2C9 (P11712 whole entry): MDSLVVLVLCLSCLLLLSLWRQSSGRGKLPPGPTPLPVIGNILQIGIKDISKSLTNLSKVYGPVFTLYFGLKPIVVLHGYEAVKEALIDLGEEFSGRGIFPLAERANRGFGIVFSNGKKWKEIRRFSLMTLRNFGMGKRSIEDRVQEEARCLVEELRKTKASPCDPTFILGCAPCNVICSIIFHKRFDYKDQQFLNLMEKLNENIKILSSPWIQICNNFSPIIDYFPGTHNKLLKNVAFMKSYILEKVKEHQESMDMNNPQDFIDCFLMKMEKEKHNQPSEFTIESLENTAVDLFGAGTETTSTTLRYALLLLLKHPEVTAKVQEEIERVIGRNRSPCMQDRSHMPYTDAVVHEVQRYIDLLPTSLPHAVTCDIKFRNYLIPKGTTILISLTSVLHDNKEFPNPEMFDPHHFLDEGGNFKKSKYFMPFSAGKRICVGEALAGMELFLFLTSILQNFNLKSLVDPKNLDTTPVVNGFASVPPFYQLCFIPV
Chain of CYP2C19 (P33261 whole entry): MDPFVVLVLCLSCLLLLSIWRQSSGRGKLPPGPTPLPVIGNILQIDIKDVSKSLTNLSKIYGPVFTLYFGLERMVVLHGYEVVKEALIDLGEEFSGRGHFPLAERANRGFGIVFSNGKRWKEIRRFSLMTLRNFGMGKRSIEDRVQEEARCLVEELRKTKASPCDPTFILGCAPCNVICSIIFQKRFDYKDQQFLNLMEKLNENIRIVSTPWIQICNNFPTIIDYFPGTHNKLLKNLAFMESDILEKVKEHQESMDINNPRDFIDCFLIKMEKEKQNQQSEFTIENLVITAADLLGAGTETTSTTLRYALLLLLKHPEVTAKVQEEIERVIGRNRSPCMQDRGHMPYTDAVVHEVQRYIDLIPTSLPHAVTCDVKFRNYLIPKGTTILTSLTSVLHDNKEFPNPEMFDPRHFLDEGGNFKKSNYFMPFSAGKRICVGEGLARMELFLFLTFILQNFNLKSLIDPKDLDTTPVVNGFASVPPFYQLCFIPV

SMILES	inhibition at 10 µM (CYP2C9) [%]	Mouse microsomes (% Cpd. remaining at 60 min) [1] [%]	Human microsomes (% Cpd. remaining at 60 min) [2] [%]	IC50 (human RORγt) [nM]	inhibition at 10 µM (CYP1A2) [%]	inhibition at 10 µM (CYP3A4) [%]	inhibition at 10 µM (CYP2C19) [%]
O=C(O)CCc1c[nH]c2ccc(CC(=O)NC(c3cccc(F)c3)c3ccccc3N3CCCCC3)cc12 (stereo not shown) [Cpd. 3, 3-[5-({[(3-fluorophenyl)[2-(piperidin-1-yl)phenyl]methyl]carbamoyl}methyl)-1H-indol-3-yl]propanoic acid]	52.7	22	36	1000 to 10000	2.9	60.9	58.8
Cc1ccc(C(NC(=O)Cc2ccc3[nH]cc(CCC(=O)O)c3c2)c2ccccc2)c(N2CCCC2)c1 (stereo not shown) [Cpd. 5, 3-{5-[({[4-methyl-2-(pyrrolidin-1-yl)phenyl](phenyl)methyl}carbamoyl)methyl]-1H-indol-3-yl}propanoic acid]	35.9	50	89	< 1000	4.4	25.8	25
O=C(O)CCc1c[nH]c2ccc(CC(=O)NC(c3ccccc3)c3ccc(Br)cc3N3CCCC3)cc12 (stereo not shown) [Cpd. 50, 3-{5-[({[4-bromo-2-(pyrrolidin-1-yl)phenyl](phenyl)methyl}carbamoyl)methyl]-1H-indol-3-yl}propanoic acid]	15.8	38	92	< 1000	0.9	36.8	32.3
COc1ccc(C(NC(=O)Cc2ccc3[nH]cc(CCC(=O)O)c3c2)c2ccccc2)c(N2CCCCC2)c1 (stereo not shown) [Cpd. 111, 3-{5-[({[4-methoxy-2-(piperidin-1-yl)phenyl](phenyl)methyl}carbamoyl)methyl]-1H-indol-3-yl}propanoic acid]	28.2	37	88	1000 to 10000	-12.4	40.1	29.4
Cc1ccc(C(NC(=O)Cc2ccc3[nH]cc(CCC(=O)O)c3c2)c2ccccc2)c(N(C)C)c1 (stereo not shown) [Cpd. 192, 3-{5-[({[2-(dimethylamino)-4-methylphenyl](phenyl)methyl}carbamoyl)methyl]-1H-indol-3-yl}propanoic acid]	28.6	66	79	< 1000	-1.9	30.9	31.2

The remaining lines, values ahead:

inhibition at 10 µM (CYP2C9) [%]	Mouse microsomes (% Cpd. remaining at 60 min) [1] [%]	Human microsomes (% Cpd. remaining at 60 min) [2] [%]	IC50 (human RORγt) [nM]	inhibition at 10 µM (CYP1A2) [%]	inhibition at 10 µM (CYP3A4) [%]	inhibition at 10 µM (CYP2C19) [%]	SMILES
12	35	54	1000 to 10000	1	19	13	O=C(O)CCc1c[nH]c2ccc(CC(=O)NC(c3ccccc3)c3ccccc3N3CCCCC3)cc12 (stereo not shown) [Cpd. 1, 3-{5-[({phenyl[2-(piperidin-1-yl)phenyl]methyl}carbamoyl)methyl]-1H-indol-3-yl}propanoic acid]
14.9	20	23	1000 to 10000	-8.2	47.2	14.1	CC(C)CC(NC(=O)Cc1ccc2[nH]cc(CCC(=O)O)c2c1)c1ccccc1N1CCCCC1 (stereo not shown) [Cpd. 29, 3-{5-[({3-methyl-1-[2-(piperidin-1-yl)phenyl]butyl}carbamoyl)methyl]-1H-indol-3-yl}propanoic acid]
24.6	53	83	1000 to 10000	10.7	33.7	35	O=C(O)CCc1c[nH]c2ccc(CC(=O)NC(c3ccccc3)c3ccc(C(F)(F)F)cc3N3CCCC3)cc12 (stereo not shown) [Cpd. 48, 3-{5-[({phenyl[2-(pyrrolidin-1-yl)-4-(trifluoromethyl)phenyl]methyl}carbamoyl)methyl]-1H-indol-3-yl}propanoic acid]
23.2	31	88	< 1000	-0.9	31.3	28.1	Cc1ccc(C(NC(=O)Cc2ccc3[nH]cc(CCC(=O)O)c3c2)c2ccccc2)c(N2CCCCC2)c1 (stereo not shown) [Cpd. 77, 3-{5-[({[4-methyl-2-(piperidin-1-yl)phenyl](phenyl)methyl}carbamoyl)methyl]-1H-indol-3-yl}propanoic acid]
29.5	11	26	1000 to 10000	-5.4	31	32.2	O=C(O)CCCc1c[nH]c2ccc(CC(=O)NC(c3ccccc3)c3ccccc3N3CCCCC3)cc12 (stereo not shown) [Cpd. 212, 4-{5-[({phenyl[2-(piperidin-1-yl)phenyl]methyl}carbamoyl)methyl]-1H-indol-3-yl}butanoic acid]
